Calls of active or inactive are those of the source.
How the values were obtained:
[1] = tested on: Influenza A virus; test: Antiviral activity against influenza-A at concentrations up to 200 ug/mL; NA means Inactive; assay type: functional, organism-based
[2] = tested on: Human immunodeficiency virus 1; test: Antiviral activity against human immunodeficiency virus type 1 (HIV-1) at concentrations up to 200 ug/mL; NA means Inactive; assay type: functional, organism-based
[3] = tested on: Human respirovirus 3; test: Antiviral activity against parainfluenza-3 at concentrations up to 200 ug/mL; NA means Inactive; assay type: functional, organism-based
[4] = Antiviral activity against respiratory syncytial at concentrations up to 200 ug/mL; NA means Inactive; assay type: functional
[5] = Antiviral activity against measles at concentrations up to 200 ug/mL; NA means Inactive; assay type: functional
[6] = tested on: Human immunodeficiency virus 2; test: Antiviral activity against human immunodeficiency virus type 2 (HIV-2) at concentrations up to 200 ug/mL; NA means Inactive; assay type: functional, organism-based
[7] = tested on: Influenza B virus; test: Antiviral activity against influenza-B at concentrations up to 200 ug/mL; NA means Inactive; assay type: functional, organism-based

Measured: Activity

O=C1CS(=O)(=O)OC12C1CC3CC(C1)CC2C3 (configuration not stated)
inactive: all assays above

NC1=CS(=O)(=O)OC12C1CC3CC(C1)CC2C3 (configuration not stated)
not listed: [4] | [5]
inactive: all other assays above

Source: ChEMBL document CHEMBL1149978, “Synthesis of adamantane spiro sultones as potential antiviral agents” (Bioorg Med Chem Lett, 1992)
